Measured values taken from patent publication US6414001B2, “Ether and amide compounds preparation thereof composition containing same and use thereof as antidiadetics” (Kotobuki Pharmaceutical Co. Ltd., priority 2000, dated 2002).

Tests used:
[1] = tested on: db/db mice; test: Hypoglycemic activity in mice; type: in vivo; settings: for inhibition in vivo at 30 mg/kg: 30 mg/kg once a day for four consecutive days; for inhibition in vivo at 3 mg/kg: 3 mg/kg once a day for four consecutive days
Protocol: Hypoglycemic Activity in Mice
Test compounds were suspended in 0.5% Methyl cellulose solution and administered (p.o.) to db/db mice (obtained from Nihon Clea) at a range of 3-30 mg/kg once a day for four consecutive days. Troglitazone (300 mg/kg) was also administrated for control.

[2] = Mus musculus, po, suspended in 0.5% methyl cellulose
[3] = Mus musculus, po, 10 mg/kg once a day for four consecutive days, suspended in 0.5% methyl cellulose

Row | Compound | melting point | inhibition in vivo at 10 mg/kg [1, 3] | further results
1 | Cc1oc(-c2ccccc2)nc1CC(=O)Nc1ccc(C(=O)O)c(O)c1 [Compound 52] |  |  | inhibition in vivo at 30 mg/kg [1, 2]: 10.5%
2 | CCOc1cc(OCCc2nc(-c3ccccc3)oc2C)ccc1NS(=O)(=O)C(F)(F)F [Compound 40] | 133 to 135 °C |  | inhibition in vivo at 30 mg/kg [1, 2]: 53.4%
3 | Cc1oc(-c2ccccc2)nc1CC(=O)Nc1ccc(NS(=O)(=O)C(F)(F)F)cc1 [Compound 48] | 147 to 149 °C |  | inhibition in vivo at 30 mg/kg [1, 2]: 65.4%
4 | COc1ccc(-c2nc(CCOc3ccc(NS(=O)(=O)C(F)(F)F)cc3)c(C)o2)cc1 [Compound 18] |  | 34.7% | 
5 | Cc1oc(-c2cc(C(C)(C)C)c(O)c(C(C)(C)C)c2)nc1CCOc1ccc(NS(=O)(=O)C(F)(F)F)cc1 [Compound 19] |  | 12.8% | 
6 | Cc1c(C)c2c(c(C)c1O)CCC(C)(COc1ccc(CC3SC(=O)NC3=O)cc1)O2 (stereo not shown) [Troglitazone, reference compound] |  |  | inhibition in vivo at 300 mg/kg ([1]; Mus musculus, po, 300 mg/kg, control drug): 34%
7 | Cc1oc(-c2ccccc2)nc1CCOc1ccc(NS(=O)(=O)C(F)(F)F)c(O)c1 [Compound 42] |  | 29.6% | 
8 | COC(=O)c1ccc(OCCc2nc(-c3ccccc3)oc2C)cc1O [Compound 25, 2-Hydroxy-4-[2-(5-methyl-2-phenyl-1,3-oxazole-4-yl)ethoxy]benzoic acid methyl ester] | 133 to 134 °C |  | 
9 | Cc1oc(-c2cc(C(C)(C)C)c(OCC(=O)O)c(C(C)(C)C)c2)nc1CCOc1ccc(NS(=O)(=O)C(F)(F)F)cc1 [Compound 68] |  |  | inhibition in vivo at 3 mg/kg [1, 2]: 21.2%
10 | CCOc1cc(OCCc2nc(-c3ccccc3)oc2C)ccc1C(=O)O [Compound 31, 2-Ethoxy-4-[2-(5-methyl-2-phenyl-1,3-oxazole-4-yl)ethoxy]benzoic acid] |  |  | inhibition in vivo at 30 mg/kg [1, 2]: 19%
11 | Cc1oc(-c2ccc(O)c(C(C)(C)C)c2)nc1CCOc1ccc(NS(=O)(=O)C(F)(F)F)cc1 [Compound 70] |  |  | inhibition in vivo at 30 mg/kg [1, 2]: 51%
12 | Cc1oc(-c2ccccc2)nc1CCOc1ccc(CNS(=O)(=O)C(F)(F)F)cc1 [Compound 9, 2-[4-(2-(5-Methyl-2-phenyl-1,3-oxazole-4-yl)ethoxy)benzyl]trifluoromethylsulfonamide] | 113 to 115 °C | 24% | 
13 | Cc1oc(-c2ccc(OCC(=O)O)cc2)nc1CCOc1ccc(NS(=O)(=O)C(F)(F)F)cc1 [Compound 67] | 167 to 168 °C |  | inhibition in vivo at 3 mg/kg [1, 2]: 33.1%
14 | Cc1oc(-c2ccc(Cl)cc2)nc1CCOc1ccc(NS(=O)(=O)C(F)(F)F)cc1 [Compound 58] |  |  | inhibition in vivo at 3 mg/kg [1, 2]: 43.4%
15 | CN(CCOc1ccc(NS(=O)(=O)C(F)(F)F)cc1)c1ccccn1 [Compound 11, 4-[2-(N-Methyl-N-2-pyridyl)aminoethoxy]benzene trifluoromethanesulfonamide] |  | 15.4% | 
16 | Cc1oc(-c2ccccc2)nc1CCOc1ccc(NC(=O)C(=O)O)cc1 [Compound 8, 2-[4-(2-(5-Methyl-2-phenyl-1,3-oxazole-4-yl)ethoxy)phenyl]amino-2-oxo-acetic acid] | 196 to 198 °C | 26% | 
17 | 4-[2-(5-Methyl-2-phenyl-1,3-oxazole-4-yl)ethoxy]benzene trifluoromethyl sulfonamide [Compound 2] |  |  | Hypoglycemic activity (%) ([1]; p.o., 10 mg/kg once a day for four consecutive days, suspended in 0.5% methyl cellulose): 49.0%
18 | CCc1ccc(CCOc2ccc(NS(=O)(=O)C(F)(F)F)cc2)nc1 [Compound 10, 4-[2-(5-Ethylpyridine-2-yl)ethoxy]benzene trifluoromethylsulfonamide] | 76 to 78 °C | 32.4% | 
19 | Cc1oc(-c2ccc(F)cc2)nc1CCOc1ccc(NS(=O)(=O)C(F)(F)F)cc1 [Compound 59] |  |  | inhibition in vivo at 3 mg/kg [1, 2]: 18.4%
